From ChEMBL document CHEMBL1268840, “Design, synthesis and structure-activity relationship of novel quinoxalin-2-carboxamides as 5-HT3 receptor antagonists for the management of depression” (Bioorg Med Chem Lett, 2010)

Columns and labels:
Mus musculus [1] = experiment: Antidepressant-like activity in mouse assessed as immobility time at 2 mg/kg, ip by forced swimming test; type: functional; settings: route intraperitoneal
Mus musculus [2] = experiment: Toxicity in mouse assessed as induction of spontaneous locomotor activity at 0.5 mg/kg, ip after 10 mins by actophotometry; type: organism-based; set-up: dose 0.5 mg/kg, route intraperitoneal; settings: in vivo
Mus musculus [3] = experiment: Toxicity in mouse assessed as induction of spontaneous locomotor activity at 2 mg/kg, ip after 10 mins by actophotometry; type: organism-based; set-up: dose 2 mg/kg, route intraperitoneal; settings: in vivo
Mus musculus [4] = experiment: Toxicity in mouse assessed as induction of spontaneous locomotor activity at 1 mg/kg, ip after 10 mins by actophotometry; type: organism-based; set-up: dose 1 mg/kg, route intraperitoneal; settings: in vivo
Mus musculus [5] = experiment: Antidepressant-like activity in mouse assessed as immobility time at 1 mg/kg, ip by forced swimming test; type: functional; settings: route intraperitoneal
Mus musculus [6] = experiment: Antidepressant-like activity in mouse assessed as immobility time at 0.5 mg/kg, ip by forced swimming test; type: functional; settings: route intraperitoneal
[7] = target: T1, 5-hydroxytryptamine receptor 3A (Cavia porcellus, UniProt O70212); experiment: Antagonist activity at 5HT3 receptor in guinea pig ileum longitudinal muscle myenteric plexus assessed as inhibition of 2-methyl-5-HT-induced contraction; type: functional, tissue-based; settings: read-out: pA2 (converted)
T1 sequence (O70212 whole entry): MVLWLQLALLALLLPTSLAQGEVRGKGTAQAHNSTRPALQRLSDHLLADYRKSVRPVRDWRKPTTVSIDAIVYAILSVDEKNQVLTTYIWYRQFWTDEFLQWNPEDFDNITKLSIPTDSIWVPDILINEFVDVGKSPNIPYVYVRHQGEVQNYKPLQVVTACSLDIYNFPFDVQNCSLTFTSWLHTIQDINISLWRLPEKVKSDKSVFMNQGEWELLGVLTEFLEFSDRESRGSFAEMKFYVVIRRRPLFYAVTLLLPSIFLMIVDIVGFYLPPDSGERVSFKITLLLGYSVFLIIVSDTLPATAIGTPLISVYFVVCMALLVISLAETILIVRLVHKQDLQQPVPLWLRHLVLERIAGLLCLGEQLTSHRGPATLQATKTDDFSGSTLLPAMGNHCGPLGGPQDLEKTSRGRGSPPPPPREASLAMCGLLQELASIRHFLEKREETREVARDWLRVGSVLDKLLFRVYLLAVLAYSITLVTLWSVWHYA

SMILES | Time (Mus musculus [1]) [s] | Activity (Mus musculus [2]) | Activity (Mus musculus [3]) | Activity (Mus musculus [4]) | Time (Mus musculus [5]) [s] | Time (Mus musculus [6]) [s] | Kb [7] [nM]
Cc1ccc(NC(=O)c2cnc3ccccc3n2)cc1 | 97.23 | Non-toxic | Non-toxic | Non-toxic | 105 | 140 | 6310
O=C(NCc1ccccc1)c1cnc2ccccc2n1 | – | Non-toxic | Non-toxic | Non-toxic | 133 | – | 2000
O=C(NNc1ccccc1)c1cnc2ccccc2n1 | 121 | Non-toxic | Non-toxic | Non-toxic | 95.4 | 126 | 1580
O=C(Nc1cccc(Cl)c1)c1cnc2ccccc2n1 | – | Non-toxic | Non-toxic | Non-toxic | 151.2 | – | 1580
CCCNC(=O)c1cnc2ccccc2n1 | 125 | Non-toxic | Non-toxic | Non-toxic | 92.33 | 148 | 200
CCCCNC(=O)c1cnc2ccccc2n1 | 103 | Non-toxic | Non-toxic | Non-toxic | 97.5 | 121 | 50.1
O=C(c1cnc2ccccc2n1)N1CCCC1 | – | Non-toxic | Non-toxic | Non-toxic | 139 | – | 398
O=C(NC1CCCC1)c1cnc2ccccc2n1 | 120 | Non-toxic | Non-toxic | Non-toxic | 94.25 | 125 | 316
O=C(NC1CCCCC1)c1cnc2ccccc2n1 | 99 | Non-toxic | Non-toxic | Non-toxic | 92.85 | 119 | 1000
O=C(Nc1ccccc1)c1cnc2ccccc2n1 | – | Non-toxic | Non-toxic | Non-toxic | 141 | – | 158
COc1ccc(NC(=O)c2cnc3ccccc3n2)cc1 | – | Non-toxic | Non-toxic | Non-toxic | 143.5 | – | 10000
CC(=O)c1cccc(NC(=O)c2cnc3ccccc3n2)c1 | – | Non-toxic | Non-toxic | Non-toxic | 132.4 | – | 794
O=C(Nc1ccc([N+](=O)[O-])cc1)c1cnc2ccccc2n1 | 108 | Non-toxic | Non-toxic | Non-toxic | 106.32 | 142 | 10000
Cc1c(Cl)cccc1NC(=O)c1cnc2ccccc2n1 | 147 | Non-toxic | Non-toxic | Non-toxic | 95.42 | 120 | 25.1
O=C(Nc1nc2ccccc2s1)c1cnc2ccccc2n1 | – | Non-toxic | Non-toxic | Non-toxic | 115.1 | – | 31600
O=C(Nc1ccc(NC(=O)c2cnc3ccccc3n2)cc1)c1ccccc1 | – | Non-toxic | Non-toxic | Non-toxic | 125 | – | 12600
O=C(Nc1ccccc1NC(=O)c1cnc2ccccc2n1)c1ccccc1 | – | Non-toxic | Non-toxic | Non-toxic | 121 | – | 100000
Cc1nccn1CC1CCc2c(c3ccccc3n2C)C1=O (stereo not drawn) [ONDANSETRON] | 95.1 | Non-toxic | Non-toxic | Non-toxic | 100.4 | 130.2 | 126
